Laboratory results as given in US8946216B2, “Indazole derivatives useful as ERK inhibitors” (Merck Sharp & Dohme Corp., priority 2010, dated 2015).

How the values were obtained:
ERK protein = ERK protein (Homo sapiens, UniProt P28482); experiment: TdF (Temperature Dependence Fluorescence, thermal shift) assay for ERK; assay type: binding; settings: read-out: TdF Kd; 3 μM ERK protein, 15, 50 or 100 μM compound, Sypro Orange; Kd calculated from ΔTm; uncertainty estimated ±50%
Text: Assays: TdF Assay for ERK
The SAR (Structure Activity Relationship) for ERK ligands covered by this invention was interrogated using the TdF (Temperature Dependence Fluorescence) assay or best known as thermal shift assay. The TdF assay was mainly conducted in the 96-well based CHROMO-4 real time fluorescence plate reader (BioRad). The Sypro Orange (Sigma-Aldrich), environmentally sensitive fluorescence dye, was used to monitor the protein folding-unfolding transition. Protein-ligand binding was gauged by the change (or shift) in the unfolding transition temperature (ΔTm) acquired at protein alone with respect to protein in the presence of ligand of interest.
Compound of interest was first prepared in DMSO stock (typical concentration: 10 mM). Sample of 20 μL was then added into the 96-well PCR plate, where it consisted of 3 μM. […] Final percentage of DMSO resided in the sample was 2%. The sample plate was heated from 30° C. to 90° C. with thermal ramping rate of 1 ° C./min. The fluorescence signals were acquired with excitation and emission wavelengths centered at 490 and 560 nm respectively. The instrument thermal stability was ±0.2° C. The melting temperatures (Tm) for ERK protein under aforementioned conditions occurred at 61.0±0.2° C. and 64.8±0.2° C. respectively.
Theoretical Basis for TdF-based Ligand Binding Affinity Constant
The derivation of TdF-based ligand binding affinity constant (Kd) followed closely those previously formulated by Brandts and Lin [2]. In brief, the binding constant of the ligand at the Tm is expressed as below: […]
where T0 is the midpoint of unfolding for unliganded protein and Tm is the midpoint of unfolding in presence of ligand. [LTm] is free ligand at Tm. The ΔHu and ΔCpu are the enthalpy of unfolding and heat capacity change of unfolding for the protein respectively. Following algorithm derived by Winsor and coworker, the T0, ΔHu and ΔCpu can be determined separately from nonlinear regression fitting the protein alone melting curve:
Where F(T) is the observed fluorescence intensity at any temperature T, Yn and Yu are the predicted fluorescence intensities for fully folded and unfolded protein, respectively; mn and mu are slope correction for changes in Yn and Yu with respect to changes in temperature (analogously replace T0 with Tm in the above equation for liganded protein to yield Tm).
where ΔHL(T) is the van't Hoff enthalpy of ligand binding at temperature T and ΔCpL is the heat capacity upon ligand binding. For simplicity, the ΔCpL and ΔHL(T) were set to zero and −7 kcal/mol respectively. The uncertainty in the calculated ligand binding affinity constant was estimated to be ±50%.

[1] = molecular target: unphosphorylated Mouse ERK2 protein (inactive ERK2) (Mus musculus, UniProt P63085); experiment: Coupled ERK2 (cERK) assay, coupled MEK1/ERK2 IMAP; assay type: biochemical; settings: 30 min preincubation with inactive ERK2, then activation by human MEK1; 30 μM ATP; fluorescence polarization; read-out: cERK2 IC50
Text: • 1. M. W. Pantoliana, E. C. Petrella, J. D. Kwasnoski, V. S. Lobanov, J. Myslik, E. Graf, T. Carver, E. Asel, B. A. Springer, P. Lane, F. R. Salemme, High-density miniaturized thermal shift assays as a general strategy for drug discovery, J. Biomol. Screen 6 (2001) 429-440 • 2. J. F. Brandts, L.-N. Lin, Study of strong to ultratight protein interactions using differential scanning calorimetry, Biochemistry 29 (1990) 6927-6940 • 3. Mayhood, T. W., Windsor, W. T., Ligand binding affinity determined by temperature-dependent circular dichroism: Cyclin-dependent kinase 2 inhibitors, Analytical Biochemistry 345 (2005) 187-197 Coupled ERK2 (cERK) Assay:
14 μl of kinase buffer (10 mM Tris.HCl pH 7.2, 10 mM MgCl2, 0.01% Tween-20, 1 mM DTT) containing 0.4 ng unphosphorylated Mouse ERK2 protein was added to each well of a black 384-well assay plate. […] DMSO concentration during initial incubation is 6.7%. ERK2 activity was determined to be insensitive to DMSO concentrations up to 20%. ERK2 was then activated and it's kinase activity measured by the addition of 10 μl kinase buffer with the following components (final concentration per reaction): 2 ng active (phosphorylated) human MEK1 protein and 4 μM (total) ERK2 IMAP substrate peptides (3.9 μM unlabeled IPTTPITTTYFFFK-CONH2 and 100 nM IPTTPITTTYFFFK(5-carboxyfluorescein)-CONH2) and 30 μM ATP. DMSO concentration during ERK activation was 4%. After one hour, reactions were terminated by addition of 60 μl IMAP detections beads in binding buffer (Molecular Devices). Binding was allowed to equilibrate for 30 minutes before reading the plate on an LJL Analyst Fluorescence Polarization plate reader. […] Active compounds were reconfirmed in an independent assay.

[2] = molecular target: fully phosphorylated, active Mouse ERK2 protein (Mus musculus, UniProt P63085); experiment: Active ERK2 (aERK) assay, IMAP format; assay type: biochemical; settings: 30 min preincubation; 1 μM substrate peptide, 30 μM ATP; fluorescence polarization; read-out: aERK2 IC50
Protocol: Active ERK2 (aERK) Assay:
Activated ERK2 activity was also determined in the IMAP assay format using the procedure outlined above. 1 μl of 25× compound was added to 14 μl of kinase buffer containing 0.25 ng fully phosphorylated, active Mouse ERK2 protein. Following a 30 minute incubation, the reactions were initiated by addition of 10 μl of kinase buffer containing 1 μM ERK2 IMAP substrate peptide (0.9 μM unlabeled IPTTPITTTYFFFK--CONH2 and 100 nM IPTTPITTTYFFFK(5-carboxyfluorescein)-CONH2) and 30 μM ATP. Reactions proceeded for 30 minutes before termination by addition of 60 μl IMAP detection beads in binding buffer. Plates were read as above after 30 minute binding equilibration. Active compounds were reconfirmed in an independent assay.

unphosphorylated Mouse ERK2 protein (inactive ERK2), sequence (P63085 whole entry): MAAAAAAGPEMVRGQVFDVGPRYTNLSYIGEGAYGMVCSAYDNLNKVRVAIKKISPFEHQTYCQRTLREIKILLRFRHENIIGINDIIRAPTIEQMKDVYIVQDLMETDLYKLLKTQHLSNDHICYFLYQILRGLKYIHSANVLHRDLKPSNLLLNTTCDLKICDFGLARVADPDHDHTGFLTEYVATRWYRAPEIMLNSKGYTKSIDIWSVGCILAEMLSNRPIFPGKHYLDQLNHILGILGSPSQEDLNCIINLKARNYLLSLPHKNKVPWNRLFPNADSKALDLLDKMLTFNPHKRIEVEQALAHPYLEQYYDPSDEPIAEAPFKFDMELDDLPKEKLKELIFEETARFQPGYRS
fully phosphorylated, active Mouse ERK2 protein, sequence (P63085 whole entry): as above
ERK protein, sequence (P28482 2-360): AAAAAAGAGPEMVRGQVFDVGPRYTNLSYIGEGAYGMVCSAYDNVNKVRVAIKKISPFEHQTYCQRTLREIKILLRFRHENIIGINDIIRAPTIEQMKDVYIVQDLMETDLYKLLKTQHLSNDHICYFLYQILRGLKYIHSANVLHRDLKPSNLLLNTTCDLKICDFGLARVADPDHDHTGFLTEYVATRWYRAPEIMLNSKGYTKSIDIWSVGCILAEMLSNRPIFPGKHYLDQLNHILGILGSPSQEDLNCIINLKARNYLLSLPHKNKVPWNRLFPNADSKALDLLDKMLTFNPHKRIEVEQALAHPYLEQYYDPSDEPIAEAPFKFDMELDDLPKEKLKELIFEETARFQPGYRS

Row | Kd (ERK protein) [nM] | IC50 [1] [nM] | IC50 [2] [nM] | SMILES
1 | 8 | 69.4 | 124 | O=C(Nc1ccc2[nH]nc(-c3ccncc3)c2c1)C1CNCC(c2ccccc2)C1 (stereo not drawn) [Compound 79, 5-PHENYL-N-[3-(4-PYRIDINYL)-1H-INDAZOL-5-YL]-3-PIPERIDINECARBOXAMIDE]
2 | 571 | 1170 | 18100 | Cc1nc(CN2CCOC(C(=O)Nc3ccc4[nH]nc(-c5ccncc5)c4c3)C2)cs1 (stereo not drawn) [Compound 18, 4-[(2-METHYL-4-THIAZOLYL)METHYL]-N-[3-(4-PYRIDINYL)-1H-INDAZOL-5-YL]-2-MORPHOLINECARBOXAMIDE]
3 | 240 | 532 | 1000 | CC(C)Oc1ccc(-c2n[nH]c3ccc(NC(=O)C4CN(Cc5ccccc5)CCO4)cc23)cn1 (stereo not drawn) [Compound 1, N-[3-[6-(1-METHYLETHOXY)-3-PYRIDINYL]-1H-INDAZOL-5-YL]-4-(PHENYLMETHYL)-2-MORPHOLINECARBOXAMIDE]
4 | 23 | 91.5 | 82.3 | N#Cc1ccccc1N1CCCC(C(=O)Nc2ccc3[nH]nc(-c4ccncc4)c3c2)C1 (stereo not drawn) [Compound 55, 1-(2-CYANOPHENYL)-N-[3-(4-PYRIDINYL)-1H-INDAZOL-5-YL]-3-PIPERIDINECARBOXAMIDE]
5 | 27 | 173 | 111 | O=C(Nc1ccc2[nH]nc(-c3ccncc3)c2c1)C1CN(Cc2c(F)cccc2Cl)CCO1 (stereo not drawn) [Compound 37, 4-[(2-CHLORO-6-FLUOROPHENYL)METHYL]-N-[3-(4-PYRIDINYL)-1H-INDAZOL-5-YL]-2-MORPHOLINECARBOXAMIDE]
6 | 18 | 60.8 | 56.5 | O=C(Nc1ccc2[nH]nc(-c3ccncc3)c2c1)C1CNCCC1c1ccc(F)cc1 (stereo not drawn) [Compound 52, 4-(4-FLUOROPHENYL)-N-(3-(PYRIDIN-4-YL)-1H-INDAZOL-5-YL)PIPERIDINE-3-CARBOXAMIDE]
7 | 5 | 19.9 | 8.1 | O=C(Nc1ccc2[nH]nc(-c3ccncc3)c2c1)[C@H]1CN(Cc2ccccc2F)CCS1 [Compound 61, 4-[(2-FLUOROPHENYL)METHYL]-N-[3-(4-PYRIDINYL)-1H-INDAZOL-5-YL]-2(R)-THIOMORPHOLINECARBOXAMIDE]
8 | 15 | 36.4 | 77.2 | O=C(Nc1ccc2[nH]nc(-c3ccncc3)c2c1)C1CN(Cc2ccccc2F)CCS1 (stereo not drawn) [Compound 10, 4-[(2-FLUOROPHENYL)METHYL]-N-[3-(4-PYRIDINYL)-1H-INDAZOL-5-YL]-2-THIOMORPHOLINECARBOXAMIDE]
9 | 4.4 | 8.3 | 2.7 | O=C(Nc1ccc2[nH]nc(-c3ccncc3)c2c1)C1CN(Cc2ccccc2F)CC[S+]1[O-] (stereo not drawn) [Compound 69, 4-[(2-FLUOROPHENYL)METHYL]-N-[3-(4-PYRIDINYL)-1H-INDAZOL-5-YL]-2-THIOMORPHOLINECARBOXAMIDE, 1-OXIDE]
10 | 423 | 508 | 957 | CSc1ccc(CN2CCOC(C(=O)Nc3ccc4[nH]nc(-c5ccncc5)c4c3)C2)cc1 (stereo not drawn) [Compound 34, 4-[[4-(METHYLTHIO)PHENYL]METHYL]-N-[3-(4-PYRIDINYL)-1H-INDAZOL-5-YL]-2-MORPHOLINECARBOXAMIDE]
11 | 13500 | 2140 | 852 | O=C(Nc1ccc2[nH]nc(-c3ccncc3)c2c1)C1CNCCO1 (stereo not drawn) [Compound 16, N-[3-(4-PYRIDINYL)-1H-INDAZOL-5-YL]-2-MORPHOLINECARBOXAMIDE]
12 | 214 | 218 | 139 | O=C(Nc1ccc2[nH]nc(-c3ccncc3)c2c1)C1CN(Cc2cccc(F)c2F)CCO1 (stereo not drawn) [Compound 43, 4-[(2,3-DIFLUOROPHENYL)METHYL]-N-[3-(4-PYRIDINYL)-1H-INDAZOL-5-YL]-2-MORPHOLINECARBOXAMIDE]
13 | 141 | 151 | 123 | O=C(Nc1ccc2[nH]nc(-c3ccncc3)c2c1)C1CN(Cc2cccc(Cl)c2)CCO1 (stereo not drawn) [Compound 29, 4-[(3-CHLOROPHENYL)METHYL]-N-[3-(4-PYRIDINYL)-1H-INDAZOL-5-YL]-2-MORPHOLINECARBOXAMIDE]
14 | 6 | 72.3 | 175 | O=C(Nc1ccc2[nH]nc(-c3ccncc3)c2c1)[C@@H]1CN(Cc2ccccc2F)CCS1 [Compound 60, 4-[(2-FLUOROPHENYL)METHYL]-N-[3-(4-PYRIDINYL)-1H-INDAZOL-5-YL]-2(S)-THIOMORPHOLINECARBOXAMIDE]
15 | 21 | 21.6 | 16.3 | O=C(Nc1ccc2[nH]nc(-c3ccncc3)c2c1)[C@H]1CN(Cc2ccccc2)CCN1 [Compound 59, 4-(PHENYLMETHYL)-N-[3-(4-PYRIDINYL)-1H-INDAZOL-5-YL]-2(R)-PIPERAZINECARBOXAMIDE]
16 | 602 | 960 | 2200 | O=C(Nc1ccc2[nH]nc(-c3ccncc3)c2c1)C1CN(C(=O)OCc2ccccc2)CCN1 (stereo not drawn) [Compound 58, PHENYLMETHYL 3-[[[3-(4-PYRIDINYL)-1H-INDAZOL-5-YL]AMINO]CARBONYL]-1-PIPERAZINECARBOXYLATE]
17 | 616 | 840 | 475 | Cc1nc(CN2CCSC(C(=O)Nc3ccc4[nH]nc(-c5ccncc5)c4c3)C2)cs1 (stereo not drawn) [Compound 11, 4-[(2-METHYL-4-THIAZOLYL)METHYL]-N-[3-(4-PYRIDINYL)-1H-INDAZOL-5-YL]-2-THIOMORPHOLINECARBOXAMIDE]
18 | 49 | 61.8 | 52 | O=C(Nc1ccc2[nH]nc(-c3ccncc3)c2c1)[C@@H]1CN(Cc2ccccc2)CCN1 [Compound 57, 4-(PHENYLMETHYL)-N-[3-(4-PYRIDINYL)-1H-INDAZOL-5-YL]-2(S)-PIPERAZINECARBOXAMIDE]
19 | 165 | 109 | 69.2 | O=C(Nc1ccc2[nH]nc(-c3ccncc3)c2c1)C1CN(Cc2c(F)cccc2F)CCO1 (stereo not drawn) [Compound 44, 4-[(2,6-DIFLUOROPHENYL)METHYL]-N-[3-(4-PYRIDINYL)-1H-INDAZOL-5-YL]-2-MORPHOLINECARBOXAMIDE]

Row | SMILES | Kd (ERK protein) [nM] | IC50 [1] [nM] | IC50 [2] [nM]
20 | O=C(Nc1ccc2[nH]nc(-c3ccncc3)c2c1)C1CN(Cc2cccnc2)CCO1 (stereo not drawn) [Compound 19, N-[3-(4-PYRIDINYL)-1H-INDAZOL-5-YL]-4-(3-PYRIDINYLMETHYL)-2-MORPHOLINECARBOXAMIDE] | 517 | 2200 | 17000
